The values that follow come from patent publication US20210395256A1, “TYROSINE KINASE INHIBITORS, COMPOSITIONS AND METHODS THERE OF” (Betta Pharmaceuticals Co., Ltd., priority 2018, published 2021).

Assay [1] has as its target TrkA kinase (Homo sapiens, UniProt P04629). The assay is described as follows: TrkA kinase assay (mobility shift assay). Format: biochemical. The settings on record: read-out: Trk A Kinase IC50. In outline:
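Caliper mobility-shift readout of FAM-labelled peptide conversion by TrkA in 50 mM HEPES pH 7.5, 0.0015% Brij-35, with ATP; enzyme preincubated 10 min with compound (10-point dilution), reaction at 28 °C, EDTA stop. Inhibition relative to DMSO and no-enzyme controls; IC50 by four-parameter fit.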

Assay [2] has as its target T1, Ba/F3-TPM3-NTRK1 (Homo sapiens, UniProt P04629).
T1 construct: expressed in transfected cells; host or cells: Ba/F3; the other entry of the earlier key: TPM3 (P06753, Tropomyosin alpha-3 chain)
The assay is described as follows: Ba/F3-TPM3-NTRK1 cells proliferation assay. Format: cell-based. To be noted: 72 h, CellTiter Glo. In outline:
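Ba/F3 cells stably expressing TPM3-NTRK1 or ETV6-NTRK3 fusions, 2000/well, exposed 72 h to compound at 300 to 0.05 nM final (3-fold series, 0.5% DMSO). Viability by CellTiter-Glo luminescence; IC50 by four-parameter nonlinear regression.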
For orientation: Cellular ATP, detected with luciferase, serves as a proxy for viable cell number.

Like-named read-outs stand apart in the source and are kept apart here.

TrkA kinase, sequence (P04629 33-796): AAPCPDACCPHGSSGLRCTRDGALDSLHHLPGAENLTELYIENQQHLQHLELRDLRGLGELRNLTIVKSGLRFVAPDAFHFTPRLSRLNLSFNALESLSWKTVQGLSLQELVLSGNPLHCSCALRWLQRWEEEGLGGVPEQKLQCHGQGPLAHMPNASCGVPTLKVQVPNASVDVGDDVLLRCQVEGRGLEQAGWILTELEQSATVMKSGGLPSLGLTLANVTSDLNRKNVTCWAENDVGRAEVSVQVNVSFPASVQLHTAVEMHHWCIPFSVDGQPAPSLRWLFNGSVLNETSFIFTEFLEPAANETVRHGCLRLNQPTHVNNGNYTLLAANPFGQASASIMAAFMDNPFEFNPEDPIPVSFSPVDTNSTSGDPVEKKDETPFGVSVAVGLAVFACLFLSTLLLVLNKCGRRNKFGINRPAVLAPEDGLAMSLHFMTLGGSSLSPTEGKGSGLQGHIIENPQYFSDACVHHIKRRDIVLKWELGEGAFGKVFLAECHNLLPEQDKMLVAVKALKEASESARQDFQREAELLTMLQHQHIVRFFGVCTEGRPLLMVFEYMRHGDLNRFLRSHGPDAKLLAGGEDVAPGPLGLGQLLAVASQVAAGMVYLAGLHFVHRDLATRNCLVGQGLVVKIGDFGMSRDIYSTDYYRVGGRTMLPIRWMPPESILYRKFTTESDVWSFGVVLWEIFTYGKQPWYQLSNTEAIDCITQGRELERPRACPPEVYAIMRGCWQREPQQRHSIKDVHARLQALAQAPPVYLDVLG
T1 sequence (P04629 510-796 limits assumed): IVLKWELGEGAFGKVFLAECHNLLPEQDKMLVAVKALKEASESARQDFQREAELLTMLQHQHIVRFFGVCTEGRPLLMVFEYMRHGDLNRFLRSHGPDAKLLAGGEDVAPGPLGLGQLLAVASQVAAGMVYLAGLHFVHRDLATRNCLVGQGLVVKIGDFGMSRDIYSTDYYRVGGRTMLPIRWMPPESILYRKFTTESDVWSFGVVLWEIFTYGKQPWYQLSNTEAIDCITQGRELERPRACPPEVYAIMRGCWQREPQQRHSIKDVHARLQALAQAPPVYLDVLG

Consider `C[C@H](O)c1nnc(-c2cnn3ccc(N4CCC[C@@H]4c4cc(F)ccc4F)nc23)[nH]1` [Compound 4, (S)-1-(5-(5-((R)-2-(2,5-difluorophenyl)pyrrolidin-1-yl)pyrazolo[1,5-a]pyrimidin-3-yl)-4H-1,2,4-triazol-3-yl)ethan-1-ol], for which the IC50 (as a rule, the concentration needed to halve the response being measured) in assay [1] (numeric values) is 1.37 nM; in assay [2] it was 3.55 nM. On to `CC(C)(O)c1nnc(-c2cnn3ccc(N4CCC[C@@H]4c4cc(F)ccc4F)nc23)[nH]1` [Compound 7, (R)-2-(5-(5-(2-(2,5-difluorophenyl)pyrrolidin-1-yl)pyrazolo[1,5-a]pyrimidin-3-yl)-4H-1,2,4-triazol-3-yl)propan-2-ol], for which the results for the IC50 in assay [1] (numeric values) and in assay [2] were 0.68 nM and 8.17 nM, respectively. For the compound `C[C@H](N)c1nnc(-c2cnn3ccc(N4CCC[C@@H]4c4cc(F)ccc4F)nc23)[nH]1` [Compound 11, (S)-1-(5-(5-((R)-2-(2,5-difluorophenyl)pyrrolidin-1-yl)pyrazolo[1,5-a]pyrimidin-3-yl)-4H-1,2,4-triazol-3-yl)ethan-1-amine], the IC50 is not above 10 nM in assay [1] (class symbols) and 13.6 nM in assay [2]. `OC1(c2nnc(-c3cnn4ccc(N5CCC[C@@H]5c5cc(F)ccc5F)nc34)[nH]2)CCC1` [Compound 23, (R)-1-(5-(5-(2-(2,5-difluorophenyl)pyrrolidin-1-yl)pyrazolo[1,5-a]pyrimidin-3-yl)-4H-1,2,4-triazol-3-yl)cyclobutan-1-ol]: the values for the IC50 in assay [1] (numeric values) and in assay [2] were 2.3 nM and 20.9 nM, respectively. On the same counts, the results for `CC(C)(O)Cc1nnc(-c2cnn3ccc(N4CCC[C@@H]4c4cc(F)ccc4F)nc23)[nH]1` [Compound 30, (R)-1-(5-(5-(2-(2,5-difluorophenyl)pyrrolidin-1-yl)pyrazolo[1,5-a]pyrimidin-3-yl)-4H-1,2,4-triazol-3-yl)-2-methylpropan-2-ol] are 4.9 nM and 13.8 nM.

For the compound `OC1CC(c2nnc(-c3cnn4ccc(N5CCC[C@@H]5c5cc(F)ccc5F)nc34)[nH]2)C1` (stereo partly drawn) [Compound 31, (R)-3-(5-(5-(2-(2,5-difluorophenyl)pyrrolidin-1-yl)pyrazolo[1,5-a]pyrimidin-3-yl)-4H-1,2,4-triazol-3-yl)cyclobutan-1-ol], the results for the IC50 in assay [1] (numeric values) and in assay [2] were 2.3 nM and 3.88 nM, respectively. With `C[C@@H](CO)c1nnc(-c2cnn3ccc(N4CCC[C@@H]4c4cc(F)ccc4F)nc23)[nH]1` [Compound 39, (R)-2-(5-(5-((R)-2-(2,5-difluorophenyl)pyrrolidin-1-yl)pyrazolo[1,5-a]pyrimidin-3-yl)-4H-1,2,4-triazol-3-yl)propan-1-ol], the values for the 50% inhibitory concentration (IC50) in assay [1] (numeric values) and in assay [2] were 1.26 nM and 7.42 nM, respectively. For `OC(c1nnc(-c2cnn3ccc(N4CCC[C@@H]4c4cc(F)ccc4F)nc23)[nH]1)C(F)(F)F` (stereo partly drawn) [Compound 47, 1-(5-(5-((R)-2-(2,5-difluorophenyl)pyrrolidin-1-yl)pyrazolo[1,5-a]pyrimidin-3-yl)-4H-1,2,4-triazol-3-yl)-2,2,2-trifluoroethan-1-ol], the IC50 in assay [1] (numeric values) was found to be 3.23 nM.
